Experimental data reported in patent publication US20230173018A1, “CASPOFUNGIN DERIVATIVES AND ASSAYS FOR EVALUATING ANTIFUNGAL TREATMENT EFFICACY” (priority 2020, published 2023).

Experiments:
Assay type in all cases: cell-based
[1] = tested on: C. albicans SC5314 and SN152 cells; experiment: Effect of endocytosis inhibitors on probe 1 uptake, flow cytometry; conditions: 8 μg/mL inhibitor, 1 μM probe 1, after 30 min, both SC5314 and SN152
Procedure: Assuming that echinocandin probe uptake occurs via endocytosis, then inhibitors of endocytosis should inhibit probe uptake as well. The accumulation of probe 1 in C. albicans SC5314 and SN152 cells was measured by flow cytometry in the absence and presence of endocytosis inhibitors trifluoperazine (TFP) or pyrroloquinoxaline derivative CGS 12066B (FIG. 6A).
For example, after 30 min, TFP inhibited the uptake of probe 1 by approximately 30% and CGS 12066B inhibited its uptake by approximately 60% in both C. albicans SC5314 and SN152.

[2] = tested on: C. albicans SC5314 and C. albicans SN152; experiment: Effect of endocytosis inhibitors on growth of Candida cells; conditions: 8 μg/mL, FIGS. 6C-6F
[3] = tested on: C. albicans SC5314 and SN152; experiment: Competition for cellular uptake with probe 1, flow cytometry; conditions: added simultaneously with probe 1; caspofungin 1 μM, 10 μM; fluconazole 10 μM
Procedure: To determine if caspofungin competes for cellular uptake with fluorescent probe 1, both the drug and the probe were added simultaneously to cultures of strains SC5314 and SN152. The uptake of probe 1 was measured by flow cytometry every 15 minutes for 1 hour (FIG. 6B). […] No effect on the uptake of probe 1 was detected in cells co-treated with the antifungal azole drug fluconazole, which inhibits the biosynthesis of fungal membrane sterol, ergosterol.

Structure (SMILES)	inhibition of the uptake of probe 1 [1]	effect on growth [2]	inhibition at 8 µg/mL ([1]; Candida albicans, 0.5 h)	effect on the uptake of probe 1 [3]
CN1CCN(c2nc3cc(C(F)(F)F)ccc3n3cccc23)CC1.O=C(O)/C=C\C(=O)O.O=C(O)/C=C\C(=O)O [CGS 12066B]	approximately 60%	modestly reduce growth		
CN1CCN(CCCN2c3ccccc3Sc3ccc(C(F)(F)F)cc32)CC1 [TFP, trifluoperazine]		modestly reduce growth	~30%	
OC(Cn1cncn1)(Cn1cncn1)c1ccc(F)cc1F [fluconazole]				No effect
